Test results published in patent publication US3984431A, “Derivatives of pyrazole-5-acetic acid” (priority 1972, dated 1976).
Read-outs that look alike come from different tables or passages of the source.

Assays:
[1] = system: Pain (cramp) caused by acetic acid; assay: Analgesic action: pain (cramp) caused by acetic acid in the mouse (Siegmund); format: in vivo; settings: for ED50: sc, read-out: 50% effective dose
Method: The analgesic action was tested in relation to the pain caused in the mouse by the subcutaneous injection of acetic acid.
(§1) In all cases the products of the invention are compared to the following reference substances, aspirin, phenylbutazone, indomethacine.

[2] = system: Carragheen induced oedema; assay: Anti-inflammatory action: carragheen induced oedema (Winter); format: in vivo, rat; settings: read-out: 50% effective dose
Source text: 1. Carragheen induced odema; method of Winter Arch. intern.
as §1

[3] = system: Ultra-violet induced erythema; assay: Anti-inflammatory action: ultra-violet induced erythema (Winter); format: in vivo, guinea-pig; settings: Cavia porcellus, read-out: 50% effective dose
Source text: 2. Ultra-violet induced erythema; method of Winter Arch. intern.
as §1

[4] = system: Brewer's yeast induced pyrexia; assay: Antipyretic action: Brewer's yeast induced pyrexia (Bianchi); format: in vivo, rat; settings: read-out: 50% effective dose
Source text: Antipyretic action was established on the pyretic rat by the Bianchi method.
as §1

Cotton pellet granulema = assay: Anti-inflammatory action: cotton pellet granuloma (Winter); format: in vivo, rat; settings: read-out: 50% effective dose
Source text: as §1

[5] = Overall appraisal of anti-inflammatory, antipyretic and analgesic tests versus reference substances; format: in vivo; settings: for overall activity compared with example 5 (in words): compared to example 5; for overall activity compared with phenylbutazone (in words): compared to phenylbutazone
Method: 1. Carragheen induced odema; method of Winter Arch. intern. Pharmacod. volume 112, page 174 (1957)
2. Ultra-violet induced erythema; method of Winter Arch. intern. Pharmacod. volume 114, page 261 (1958)
3. The formation of granulomae caused by the sub-cutaneous implantation of pellets of cotton in the rat; method of Winter Journal of the American Pharmaceutical Association, Science Edition, Volume 46, page 515 (1957)
The analgesic action was tested in relation to the pain caused in the mouse by the subcutaneous injection of acetic acid. Method based upon that of Siegmund, Proceedings of the Society of Experimental Biology and Medicine, volume 75, page 729 (1957)
Antipyretic action was established on the pyretic rat by the Bianchi method. Arzneimittel Forschung, volume 17, page 246 (1967)
as §1

[6] = mouse, acetic acid injected subcutaneously
[7] = guinea-pig, oral administration
[8] = rat, oral administration, sub-cutaneous implantation of cotton pellets

SMILES | ED50 ([1]; Mus musculus) | ED50 ([2]; Rattus norvegicus, po) | ED50 ([3]; po) | ED50 ([4]; Rattus norvegicus) | ED50 [1, 6] | ED50 ([2]; rat, oral administration) | ED50 [3, 7] | ED50 (Cotton pellet granulema; [8]) | ED50 ([4]; pyretic rat) | overall activity compared with example 5 (in words) [5] | overall activity compared with phenylbutazone (in words) [5] | analgesic effect (in words) ([1]; from the table) | overall activity compared with indomethacine (in words) ([5]; compared to indomethacine) | anti-inflammatory and anti-pyretic activity (in words) ([5]; from the table) | ED50 (Cotton pellet granulema; Rattus norvegicus, po)
CC(=O)Oc1ccccc1C(=O)O [ASPIRIN, aspirin, reference compound] | 130 mg/kg | 180 mg/kg | 50 mg/kg | 30 mg/kg | – | – | – | – | – | – | – | – | – | – | –
O=C(O)Cc1c(-c2ccccc2)c(-c2ccccc2)nn1Cc1ccccc1 [Example 1, 1-benzyl-3,4-diphenylpyrazolyl-5-acetic acid] | – | – | – | – | 150 mg/kg | 60 mg/kg | 1.6 mg/kg | 80 mg/kg | 1 mg/kg | active substances, although slightly less so than example 5 | – | – | – | – | –
CC(C)Cn1nc(-c2ccccc2)c(-c2ccccc2)c1CC(=O)O [Example 3, 1-isobutyl-3,4-diphenylpyrazolyl-5-acetic acid] | – | – | – | – | 180 mg/kg | 30 mg/kg | 1 mg/kg | 18 mg/kg | 0.5 mg/kg | active substances, although slightly less so than example 5 | still more powerful than phenylbutazone | – | – | – | –
O=C(O)Cc1c(-c2ccccc2)c(-c2ccccc2)nn1-c1ccccc1 [Example 5, 1,3,4-triphenylpyrazolyl-5-acetic acid] | – | – | – | – | 90 mg/kg | 14 mg/kg | 3 mg/kg | 6 mg/kg | 0.6 mg/kg | – | much more powerful than phenylbutazone | marked analgesic effect | at least equivalent to indomethacine | powerful anti-inflammatory and anti-pyretic agent | –
COc1ccc2c(c1)c(CC(=O)O)c(C)n2C(=O)c1ccc(Cl)cc1 [INDOMETHACINE, indomethacine, reference compound] | 5.5 mg/kg | 14 mg/kg | 1.5 mg/kg | 1.3 mg/kg | – | – | – | – | – | – | – | – | – | – | 8 mg/kg
CCCCC1C(=O)N(c2ccccc2)N(c2ccccc2)C1=O [PHENYLBUTAZONE, phenylbutazone, reference compound] | – | – | – | – | 110 mg/kg | 120 mg/kg | 8.5 mg/kg | 200 mg/kg | 10 mg/kg | – | – | – | – | – | –
